Assay results as given in the supplement of paper PMC11208160.

Experiment: recombinant UMI read abundance after kanamycin selection (control-corrected) (log10(CPM+1)); higher = more efficient recombination; extreme values may be limits of the assay; sequences stand for … in AGTGCAGAGAAAATCGGCCAGTTTTCTCTGCCTGCAGTCCGCATGCCGTGGGACCCCTTGGGTTCTAACCTGTTGCCTAGATTTATGCAGCGGACTGCCTTTCTCCCAAAGTGATAAACCGG…AGGTTGGTTTCACT; site = the 11-nt donor
Outline: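 The measure is log10(CPM+1) for recombinant UMIs. These were PCR-amplified across the donor–target junction and sequenced after Escherichia coli carrying a donor and donor-binding-loop pair library and a target plasmid with T7-inducible IS621 bridge recombinase was plated on IPTG (0.07 mM) plus kanamycin or unselected. CPM were averaged over two replicates and scaled by control-derived factors.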
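Note: IS621 bridge recombinase in Escherichia coli cells against a fixed T5 target plasmid.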

Sequence | recombinant UMI read abundance (log10)
TAGCTAGCATGGACCGGTTTTCCCGGTAATCCGTATTTGAC (site TAGCTAGCTTT) | 0.388
TAGCTAGCATGGACCGGTTTTCCCGGTAATCCGTATTTGAG (site TAGCTAGCTAT) | 0.457
TAGCTAGCATGGACCGGTTTTCCCGGTAATCCGTATTTGAG (site TAGCTAGCTCT) | 0.921
TAGCTAGCATGGACCGGTTTTCCCGGTAATCCGTATTTGAG (site TAGCTAGCTGT) | 0
TAGCTAGCATGGACCGGTTTTCCCGGTAATCCGTATTTGAG (site TAGCTAGCTTT) | 0.014
TAGCTAGCATGGACCGGTTTTCCCGGTAATCCGTATTTGGA (site TAGCTAGCTTA) | 0.347
TAGCTAGCATGGACCGGTTTTCCCGGTAATCCGTATTTGGA (site TAGCTAGCTTC) | 0.303
TAGCTAGCATGGACCGGTTTTCCCGGTAATCCGTATTTGGA (site TAGCTAGCTTG) | 0.447
TAGCTAGCATGGACCGGTTTTCCCGGTAATCCGTATTTGGA (site TAGCTAGCTTT) | 0.866
TAGCTCACATGGACCGGTTTTCCCGGTAATCCGTATTTGGC (site TAGCTCACTGC) | 1.5
TAGCTCGCATGGACCGGTTTTCCCGGTAATCCGTATTTGAA (site TAGCTAGCTTT) | 0.0173
TAGCTCGCATGGACCGGTTTTCCCGGTAATCCGTATTTGAA (site TAGCTCGCTTT) | 1.27
TAGCTCGCATGGACCGGTTTTCCCGGTAATCCGTATTTGAA (site TAGCTGGCTTT) | 0.0219
TAGCTCGCATGGACCGGTTTTCCCGGTAATCCGTATTTGAA (site TAGCTTGCTTT) | 0.0127
TAGGAACCATGGACCGGTTTTCCCGGTAATCCGTATTTGCG (site TAGGAAACTCG) | 0.374
TAGGAACCATGGACCGGTTTTCCCGGTAATCCGTATTTGCG (site TAGGAACCTCG) | 0.478
TAGGAACCATGGACCGGTTTTCCCGGTAATCCGTATTTGCG (site TAGGAAGCTCG) | 0.00966
TAGGAACCATGGACCGGTTTTCCCGGTAATCCGTATTTGCG (site TAGGAATCTCG) | 0.681
TAGGAAGCATGGACCGGTTTTCCCGGTAATCCGTATTTGCG (site TAGGAAACTCG) | 2.32
TAGGAAGCATGGACCGGTTTTCCCGGTAATCCGTATTTGCG (site TAGGAACCTCG) | 0.00974
TAGGAAGCATGGACCGGTTTTCCCGGTAATCCGTATTTGCG (site TAGGAAGCTCG) | 2.73
TAGGAAGCATGGACCGGTTTTCCCGGTAATCCGTATTTGCG (site TAGGAATCTCG) | 1.85
TAGGAATCATGGACCGGTTTTCCCGGTAATCCGTATTTGCC (site TAGGAATCTAG) | 1.1

Sequence | recombinant UMI read abundance (log10)
TAGGAATCATGGACCGGTTTTCCCGGTAATCCGTATTTGCC (site TAGGAATCTCG) | 0.458
TAGGAATCATGGACCGGTTTTCCCGGTAATCCGTATTTGCC (site TAGGAATCTGG) | 2.68
TAGGAATCATGGACCGGTTTTCCCGGTAATCCGTATTTGCC (site TAGGAATCTTG) | 1.74
TAGGACTCATGGACCGGTTTTCCCGGTAATCCGTATTTGCG (site TAGGAATCTCG) | 1.98
TAGGACTCATGGACCGGTTTTCCCGGTAATCCGTATTTGCG (site TAGGACTCTCG) | 2.75
TAGGACTCATGGACCGGTTTTCCCGGTAATCCGTATTTGCG (site TAGGAGTCTCG) | 1.05
TAGGACTCATGGACCGGTTTTCCCGGTAATCCGTATTTGCG (site TAGGATTCTCG) | 1.05
TAGGTACCATGGACCGGTTTTCCCGGTAATCCGTATTTGTT (site TAGGTACCTAA) | 0.0119
TAGGTTTCATGGACCGGTTTTCCCGGTAATCCGTATTTGCG (site TAGGTTTCTCG) | 1.99
TAGTAATCATGGACCGGTTTTCCCGGTAATCCGTATTTGCG (site TAGAAATCTCG) | 1.56
TAGTAATCATGGACCGGTTTTCCCGGTAATCCGTATTTGCG (site TAGCAATCTCG) | 2.29
TAGTAATCATGGACCGGTTTTCCCGGTAATCCGTATTTGCG (site TAGGAATCTCG) | 1.47
TAGTAATCATGGACCGGTTTTCCCGGTAATCCGTATTTGCG (site TAGTAATCTCG) | 2.65
TAGTACTCATGGACCGGTTTTCCCGGTAATCCGTATTTGAT (site TAGTACTCTAT) | 2.53
TAGTATACATGGACCGGTTTTCCCGGTAATCCGTATTTGTG (site TAGTATACTCA) | 0.807
TAGTCAACATGGACCGGTTTTCCCGGTAATCCGTATTTGTT (site TAGTCAACTAA) | 0.0293
TAGTCAGCATGGACCGGTTTTCCCGGTAATCCGTATTTGCT (site TAGTCAGCTAG) | 0.957
TAGTCTGCATGGACCGGTTTTCCCGGTAATCCGTATTTGAG (site TAGTCTGCTCT) | 0.338
TAGTGAGCATGGACCGGTTTTCCCGGTAATCCGTATTTGGG (site TAATGAGCTCC) | 0.00708
TAGTGAGCATGGACCGGTTTTCCCGGTAATCCGTATTTGGG (site TACTGAGCTCC) | 0
TAGTGAGCATGGACCGGTTTTCCCGGTAATCCGTATTTGGG (site TAGTGAGCTCC) | 0.0293
TAGTGAGCATGGACCGGTTTTCCCGGTAATCCGTATTTGGG (site TATTGAGCTCC) | 0
TAGTGGACATGGACCGGTTTTCCCGGTAATCCGTATTTGTT (site TAGTGGACTAA) | 1.38

Sequence | recombinant UMI read abundance (log10)
TAGTGTACATGGACCGGTTTTCCCGGTAATCCGTATTTGAT (site TAGTGTACTAT) | 0.856
TATAAAGCATGGACCGGTTTTCCCGGTAATCCGTATTTGGA (site TATAAAGCTTC) | 0.646
TATAATACATGGACCGGTTTTCCCGGTAATCCGTATTTGCA (site TAAAATACTTG) | 1.04
TATAATACATGGACCGGTTTTCCCGGTAATCCGTATTTGCA (site TACAATACTTG) | 0.35
TATAATACATGGACCGGTTTTCCCGGTAATCCGTATTTGCA (site TAGAATACTTG) | 2.6
TATAATACATGGACCGGTTTTCCCGGTAATCCGTATTTGCA (site TATAATACTTG) | 0.242
TATACTGCATGGACCGGTTTTCCCGGTAATCCGTATTTGCT (site TATACTGCTAG) | 1.63
TATAGCGCATGGACCGGTTTTCCCGGTAATCCGTATTTGTC (site TATAGCGCTGA) | 2.62
TATAGTCCATGGACCGGTTTTCCCGGTAATCCGTATTTGTA (site TAAAGTCCTTA) | 0.605
TATAGTCCATGGACCGGTTTTCCCGGTAATCCGTATTTGTA (site TACAGTCCTTA) | 0.121
TATAGTCCATGGACCGGTTTTCCCGGTAATCCGTATTTGTA (site TAGAGTCCTTA) | 0.0216
TATAGTCCATGGACCGGTTTTCCCGGTAATCCGTATTTGTA (site TATAGTCCTTA) | 0.432
TATCAAACATGGACCGGTTTTCCCGGTAATCCGTATTTGGC (site TATCAAACTGC) | 0
TATCACACATGGACCGGTTTTCCCGGTAATCCGTATTTGTC (site TATCACACTGA) | 1.5
TATCAGCCATGGACCGGTTTTCCCGGTAATCCGTATTTGTT (site TATCAGCCTAA) | 0.0212
TATCCATCATGGACCGGTTTTCCCGGTAATCCGTATTTGCG (site TATCCATCTCG) | 0.52
TATCGAGCATGGACCGGTTTTCCCGGTAATCCGTATTTGTC (site TATCGAGCTGA) | 2.55
TATCGTCCATGGACCGGTTTTCCCGGTAATCCGTATTTGCG (site TATCGTCCTCG) | 0.0127
TATCTCACATGGACCGGTTTTCCCGGTAATCCGTATTTGTC (site TATCTCACTGA) | 1.44
TATCTTCCATGGACCGGTTTTCCCGGTAATCCGTATTTGGT (site TATCTTCCTAC) | 0.00632
TATGCGACATGGACCGGTTTTCCCGGTAATCCGTATTTGCT (site TATGCGACTAG) | 1.27
TATGCTGCATGGACCGGTTTTCCCGGTAATCCGTATTTGGA (site TATGCTGCTTC) | 0.0199
